Assay results published in patent US11981661B2, “Heterocyclic compounds” (Hoffmann-La Roche Inc., priority 2020, dated 2024).

Molecular target: T1, MAGL (Homo sapiens, UniProt Q99685)
T1 sequence (Q99685 1-303): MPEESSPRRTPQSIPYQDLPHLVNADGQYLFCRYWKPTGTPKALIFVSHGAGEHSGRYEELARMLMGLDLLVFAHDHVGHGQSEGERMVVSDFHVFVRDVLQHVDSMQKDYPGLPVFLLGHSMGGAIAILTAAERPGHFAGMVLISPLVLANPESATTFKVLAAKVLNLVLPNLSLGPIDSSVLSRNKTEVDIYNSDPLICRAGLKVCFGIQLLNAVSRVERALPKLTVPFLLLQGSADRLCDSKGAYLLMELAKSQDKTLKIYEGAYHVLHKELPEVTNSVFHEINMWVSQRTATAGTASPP
Assay: 2-AG assay (MAGL inhibitory activity, hydrolysis of 2-arachidonoylglycerol followed by mass spectrometry)
Assay type: biochemical
Settings: 50 pM MAGL, 8 μM 2-arachidonoylglycerol, 15 min preincubation, 30 min incubation at RT, concentration range 12.5 μM to 0.8 pM
Method in brief: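 50 pM MAGL preincubated 15 min at RT with compound (12.5 μM to 0.8 pM) in 50 mM TRIS, 1 mM EDTA, 0.01% Tween, then 8 μM 2-arachidonoylglycerol for 30 min at RT. Arachidonic acid measured by RapidFire SPE–triple quadrupole MS in negative mode, normalised to d8-arachidonic acid.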

| IC50 [nM] | SMILES |
| --- | --- |
| 24 | CC(C)(C)Cc1nnc(C23CC(C4CN(C(=O)CC[C@@H]5COC(=O)N5)C4)(C2)C3)o1 [Example 165, (4R)-4-[3-[3-[3-[5-(2,2-Dimethyl-propyl)-1,3,4-oxadiazol-2-yl]-1-bicyclo[1.1.1]pentanyl]azetidin-1-yl]-3-oxo-propyl] oxazolidin-2-one] |
| 2250 | O=C1NCC(CCC(=O)N2CC3(CC(Cc4ccc(C(F)(F)F)nc4)C3)C2)N1 (centres unmarked) [Example 213, 4-[3-Oxo-3-[6-[[6-(trifluoromethyl)-3-pyridyl]methyl]-2-azaspiro[3.3]heptan-2-yl]propyl]imidazolidin-2-one] |
| 62 | O=C1N[C@H](CCC(=O)N2CC3(CCC(NS(=O)(=O)c4cccc(OC(F)(F)F)c4)CC3)C2)CO1 [Example 138, N-[2-[3-[(4R)-2-Oxooxazolidin-4-yl]propanoyl]-2-azaspiro[3.5]nonan-7-yl]-3-(trifluoro-methoxy)benzene-sulfonamide] |
| 216 | O=C1N[C@H](CCC(=O)N2CC(c3cnc(N4CCC(C(F)(F)F)C4)nc3)C2)CO1 (stereo partly drawn) [Example 107, (4R)-[3-Oxo-3-[3-[2-[3-(trifluoro-methyl)pyrrolidin-1-yl]pyrimidin-5-yl]azetidin-1-yl]propyl]oxazolidin-2-one] |
| 2020 | O=C1N[C@H](CCC(=O)N2CC(c3noc(-c4ccc(C(F)(F)F)nc4)n3)C2)CO1 [Example 168, (4R)-4-[3-Oxo-3-[3-[5-[6-(trifluoromethyl)-3-pyridyl]-1,2,4-oxadiazol-3-yl]azetidin-1-yl]propyl]oxazolidin-2-one] |
| 37 | O=C1N[C@H](CCC(=O)N2CC3(CCC(Cc4ccc(OC(F)F)nc4)CC3)C2)CO1 [Example 191, (4R)-4-[3-[7-[[6-(Difluoro-methoxy)-3-pyridyl]methyl]-2-azaspiro[3.5]nonan-2-yl]-3-oxo-propyl] oxazolidin-2-one] |
| 61 | O=C1N[C@H](CCC(=O)N2CC3(CCN(Cc4ccc(S(=O)(=O)C(F)(F)F)cc4)CC3)C2)CO1 [Example 194, (4R)-4-[3-Oxo-3-[7-[[4-(trifluoro-methylsulfonyl)phenyl]methyl]-2,7-diazaspiro[3.5]nonan-2-yl]propyl] oxazolidin-2-one] |
| 0.5 | O=C1N[C@H](CCC(=O)N2CC3(CC(Cc4ccc(F)cc4F)C3)C2)CO1 [Example 27, (4R)-4-[3-[6-[(2,4-Difluorophenyl)methyl]-2-azaspiro[3.3]heptan-2-yl]-3-oxo-propyl]oxazolidin-2-one] |
| 20 | O=C1N[C@H](CCC(=O)N2CC(c3ccc(Oc4cnc(C(F)(F)F)cn4)cc3)C2)CO1 [Example 174, (4R)-4-[3-Oxo-3-[3-[4-[5-(trifluoromethyl)pyrazin-2-yl]oxyphenyl]azetidin-1-yl]propyl]oxazolidin-2-one] |
| 19 | O=C(OCCc1cnn[nH]1)N1CC(OCc2ccc(C(F)(F)F)cc2F)C1 [Example 63, 2-(1H-Triazol-5-yl)ethyl 3-[[2-fluoro-4-(trifluoro-methyl)phenyl]methoxy]azetidine-1-carboxylate] |
| 27 | CN(CCc1cnn[nH]1)C(=O)N1CC(c2ccc(-c3ccc(S(C)(=O)=O)cc3Cl)cc2)C1 [Example 67, 3-[4-(2-Chloro-4-methylsulfonyl-phenyl)phenyl]-N-methyl-N-[2-(1H-triazol-5-yl)ethyl]azetidine-1-carboxamide] |
| 605 | O=C1CCCC(CCC(=O)N2CC(OCc3ccc(C(F)(F)F)cc3F)C2)N1 (centres unmarked) [Example 49, 6-[3-[3-[[2-Fluoro-4-(trifluoromethyl)phenyl]methoxy]azetidin-1-yl]-3-oxo-propyl]piperidin-2-one] |
| 19 | O=C1CCC(CCC(=O)N2CC(OCc3ccc(C(F)(F)F)cc3F)C2)N1 (single isomer, unassigned; (+)) [Example 2, (+)-5-[3-[3-[[2-Fluoro-4-(trifluoromethyl)phenyl]methoxy]azetidin-1-yl]-3-oxo-propyl]pyrrolidin-2-one] |
| 68 | CS(=O)(=O)c1cc(Cl)ccc1-c1ccc(C2CN(C(=O)CCC3CNC(=O)N3)C2)cc1 (centres unmarked) [Example 216, 4-[3-[3-[4-(4-Chloro-2-methylsulfonyl-phenyl)phenyl]azetidin-1-yl]-3-oxo-propyl]imidazolidin-2-one] |
| 43 | O=C1N[C@H](CCC(=O)N2CC(c3ncc(-c4ccc(Cl)cc4F)cn3)C2)CO1 [Example 112, (4R)-4-[3-[3-[5-(4-Chloro-2-fluoro-phenyl)pyrimidin-2-yl]azetidin-1-yl]-3-oxo-propyl]oxazolidin-2-one] |
| 39 | O=C1N[C@H](CCC(=O)N2CC(c3cccc(C4(C(F)(F)F)CC4)c3)C2)CO1 [Example 109, (4R)-4-[3-Oxo-3-[3-[3-[1-(trifluoromethyl)cyclopropyl]phenyl]azetidin-1-yl]propyl]oxazolidin-2-one] |

| IC50 [nM] | SMILES |
| --- | --- |
| 83 | O=C1N[C@H](CCC(=O)N2CC(c3ccc(Oc4ccc(OC(F)(F)F)cc4)nc3)C2)CO1 [Example 31, (4R)-4-[3-Oxo-3-[3-[6-[4-(trifluoromethoxy)phenoxy]-3-pyridyl]azetidin-1-yl]propyl]oxaazolidin-2-one] |
| 16 | O=C1N[C@H](CCC(=O)N2CC(c3ccc(N4CCC(C(F)(F)F)C4)nc3)C2)CO1 (single isomer, unassigned) [Example 206] |
| 5 | O=C1N[C@H](CCC(=O)N2CC(c3ccc(S(=O)(=O)c4ccccc4)cc3)C2)CO1 [Example 74, (4R)-4-[3-[3-[4-(Benzenesulfonyl)phenyl]azetidin-1-yl]-3-oxo-propyl]oxazolidin-2-one] |
| 32 | O=C1NC(COC(=O)N2CC(c3ccc(N4CCC(C(F)(F)F)C4)nc3)C2)CO1 (single isomer, unassigned) [Example 87, (+)- or (−)-[(4S)-2-Oxooxazolidin-4-yl]methyl 3-[6-[3-(trifluoromethyl)pyrrolidin-1-yl]-3-pyridyl]azetidine-1-carboxylate] |
| 434 | O=C1N[C@H](CCC(=O)N2CCC(CNS(=O)(=O)c3ccc(OC(F)(F)F)cc3)CC2)CO1 [Example 159, N-[[1-[3-[(4R)-2-Oxooxazolidin-4-yl]propanoyl]-4-piperidyl]methyl]-4-(trifluoro-methoxy)benzene-sulfonamide] |
| 324 | O=C1N[C@H](CCC(=O)N2CC3(CCN(Cc4ccc(C(F)(F)F)cn4)CC3)C2)CO1 [Example 197, (4R)-4-[3-Oxo-3-[7-[[5-(trifluoro-methyl)-2-pyridyl]methyl]-2,7-diazaspiro [3.5]nonan-2-yl]propyl] oxazolidin-2-one] |
| 3 | O=C1N[C@H](CCC(=O)N2CC(c3ccc(-c4ccc(Cl)cc4F)cn3)C2)CO1 [Example 113, (4R)-4-[3-[3-[5-(4-Chloro-2-fluoro-phenyl)-2-pyridyl]azetidin-1-yl]-3-oxo-propyl]oxazolidin-2-one] |
| 1 | CN(c1ccccc1)c1ccc(C2CN(C(=O)CC[C@@H]3COC(=O)N3)C2)cc1 [Example 71, (4R)-4-[3-[3-[4-(N-Methylanilino)phenyl]azetidin-1-yl]-3-oxo-propyl]oxazolidin-2-one] |
| 1240 | O=C1N[C@H](CCC(=O)N2CC3(CC(Nc4ccc(C(F)(F)F)nn4)C3)C2)CO1 [Example 151, (4R)-4-[3-Oxo-3-[6-[[6-(trifluoro-methyl)pyridazin-3-yl]amino]-2-azaspiro[3.3]heptan-2-yl]propyl] oxazolidin-2-one] |
| 108 | CN(Cc1ccc(C(F)(F)F)cc1F)C1CN(C(=O)CC[C@@H]2COC(=O)N2)C1 [Example 162, (4R)-4-[3-[3-[[2-Fluoro-4-(trifluoromethyl)phenyl]methyl-methyl-amino]azetidin-1-yl]-3-oxo-propyl] oxazolidin-2-one] |
| 25 | O=C1N[C@H](CCC(=O)N2CC3(CCC(Cc4ccc(C(F)(F)F)nc4)CC3)C2)CO1 [Example 188, (4R)-4-[3-Oxo-3-[7-[[6-(trifluoro-methyl)-3-pyridyl]methyl]-2-azaspiro[3.5]nonan-2-yI]propyl] oxazolidin-2-one] |
| 37 | O=C1N[C@H](CCC(=O)N2CC(c3ccc([C@H]4C[C@@H](C(F)(F)F)C4)nc3)C2)CO1 [Example 202, Cis-(4R)-4-[3-Oxo-3-[3-[6-[3-(trifluoromethyl)cyclobutyl]-3-pyridyl]azetidin-1-yl]propyl]oxazolidin-2-one] |
| 140 | O=C1N[C@H](CCC(=O)N2CC3(CCC(Cc4cnc(C(F)(F)F)cn4)CC3)C2)CO1 [Example 190, (4R)-4-[3-Oxo-3-[7-[[5-(trifluoro-methyl)pyrazin-2-yl]methyl]-2-azaspiro[3.5]nonan-2-yl]propyl] oxazolidin-2-one] |
| 17 | O=C1N[C@H](CCC(=O)N2CC3(CC(Oc4cncc(C(F)(F)F)n4)C3)C2)CO1 [Example 32, (4R)-4-[3-Oxo-3-[6-[6-(trifluoromethyl)pyrazin-2-yl]oxy-2-azaspiro[3.3]heptan-2-yl]propyl]oxazolidin-2-one] |
| 95 | O=C1N[C@H](CCC(=O)N2CC3(CC(NS(=O)(=O)c4cccc(C(F)(F)F)c4)C3)C2)CO1 [Example 154, N-[2-[3-[(4R)-2-Oxooxazolidin-4-yl]propanoyl]-2-azaspiro[3.3]heptan-6-yl]-3-(trifluoromethyl) benzene-sulfonamide] |
| 0.02 | O=C1N[C@H](CCC(=O)N2CC(c3ccc(N(c4ccccc4)c4ccccc4)cc3)C2)CO1 [Example 90, (4R)-4-[3-Oxo-3-[3-[4-(N-phenylanilino)phenyl]azetidin-1-yl]propyl] oxazolidin-2-one] |
